# Laboratory results as given in patent publication US11427548B2 (Arvinas Operations, Inc., priority 2015, dated 2022).
# Where two headings read alike, the source gives them in different places.
# Tests used:
# Androgen Receptor [1] = target: T1, Androgen Receptor (Homo sapiens, UniProt P10275); assay: Androgen Receptor ELISA assay (PathScan AR ELISA) in VCaP cells: AR degradation, Dmax and DC50; assay type: cell-based; conditions: for DC50: read-out: VCaP DC50; for Dmax: VCaP, read-out: VCaP Dmax (%)
# T1 construct: endogenous in cells; host or cells: VCaP cells
# T1 sequence (P10275 1-920): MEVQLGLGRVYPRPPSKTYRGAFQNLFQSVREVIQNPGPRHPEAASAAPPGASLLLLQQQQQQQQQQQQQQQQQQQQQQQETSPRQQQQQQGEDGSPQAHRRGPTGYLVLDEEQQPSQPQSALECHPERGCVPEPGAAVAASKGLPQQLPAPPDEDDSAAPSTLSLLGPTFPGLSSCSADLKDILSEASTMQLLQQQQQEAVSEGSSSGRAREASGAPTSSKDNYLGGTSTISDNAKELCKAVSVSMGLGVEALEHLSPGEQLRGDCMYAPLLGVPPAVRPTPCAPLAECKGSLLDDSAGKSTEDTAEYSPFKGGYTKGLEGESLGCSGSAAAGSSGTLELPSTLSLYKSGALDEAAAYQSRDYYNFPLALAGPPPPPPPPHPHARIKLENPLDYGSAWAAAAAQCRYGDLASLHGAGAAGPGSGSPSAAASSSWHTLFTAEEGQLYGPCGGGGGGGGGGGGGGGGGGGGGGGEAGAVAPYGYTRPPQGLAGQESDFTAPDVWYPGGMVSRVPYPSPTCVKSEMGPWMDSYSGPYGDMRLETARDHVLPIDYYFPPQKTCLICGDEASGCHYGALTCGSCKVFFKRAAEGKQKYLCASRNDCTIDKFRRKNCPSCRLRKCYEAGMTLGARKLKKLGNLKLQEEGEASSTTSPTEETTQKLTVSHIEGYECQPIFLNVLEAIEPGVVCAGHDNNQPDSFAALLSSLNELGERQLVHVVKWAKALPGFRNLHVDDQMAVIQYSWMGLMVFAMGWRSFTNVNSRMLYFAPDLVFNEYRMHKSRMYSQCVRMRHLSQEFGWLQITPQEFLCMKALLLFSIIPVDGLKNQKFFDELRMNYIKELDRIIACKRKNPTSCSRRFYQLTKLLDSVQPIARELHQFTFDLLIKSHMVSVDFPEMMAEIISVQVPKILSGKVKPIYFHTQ
# In short: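 VCaP cells in phenol red-free RPMI with 5% charcoal-stripped FBS were grown at least 3 days, then given compound as 7 half-log doses in 0.1% DMSO with 0.1 nM R1881 for 24 h. Lysates went into a sandwich AR ELISA with TMB read at 450 nm.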
# [2] = PROTAC prodrug oral pharmacokinetics in CD-1 mice; assay type: in vivo; conditions: male, mouse, plasma, 10 mg/kg, 10 mpk PO, vehicle ESP-4, prodrug measured; for AUC: read-out: Plasma Exposure Prodrug AUC; for Cmax: read-out: Plasma Exposure Prodrug Cmax
# Procedure: (§1) 9. PROTAC Prodrug Oral Pharmacokinetics and PROTAC Subcutaneous Phamacokinetics.
# (§2) Representative Pharmacokinetic Procedure
# (§3) Male CD-1 mice (6-8 weeks old, weighing 20-30 g, 3 per study) with free access to food and water were administered with the test article at 10 mg/kg either by oral gavage or sub-cutaneous injection in the formulation specified in tables 20 and 21, at 10 mL/kg.
# (§4) Approximately 0.04 mL blood samples were collected from the dorsal metatarsal vein serially at 0.25, 0.5, 1, 2, 4, 8 and 24 h timepoints; heparin was used as the anticoagulant. The samples were centrifuged at 4000 g for 5 min at 4° C. then stored at −75° C. prior to analysis.
# (§5) The plasma samples were analysed via an LC/MS/MS method quantitating for unchanged, administered test article, and/or a derivative species as appropriate. WinNonlin (Phoenix™) was used for the pharmacokinetic calculations and modeling, to generate parameters such as Cmax and AUC.
# [3] = PROTAC subcutaneous pharmacokinetics in CD-1 mice; assay type: in vivo; conditions: male, plasma, CD-1 Mouse, 10 mg/kg SC dose; for AUC(0-t): read-out: Plasma Exposure AUC0-24; for Cmax: read-out: Plasma Exposure Cmax
# Procedure: as §1, §2, §3, §4, §5
# VCaP cells = assay: VCaP cell proliferation assay (Cell Titer Glo), GI50; assay type: cell-based; conditions: Homo sapiens; VCaP cells, 0.1 nM R1881; Table 37; read-out: GI50, Inhibition of VCaP Proliferation
# Procedure: 2. VCaP Cell Proliferation Assay.
# VCaP cells are plated 7,500/well 200 μL/well in VCaP assay medium [Phenol red free RPMI (Gibco Cat #11835-030); 5% Charcoal Stripped (Dextran treated) FBS (Omega Scientific, Cat #FB-04); Pen/Strep Life Technologies (Gibco Cat #: 10378-016); 0.1 nM R1881 (Sigma, Cat #R0908) is added upon the start of the assay, not during initial plating of the cells).
# The assay was performed as follows: the cells are grown for a minimum of 3 days to deplete androgens; dosing of PROTACs and R1881 is performed as for AR ELISA; the baseline reading of Cell Titer Glo can be performed on day of dosing.
# VCaP cells with 0.1 nM R1881 will double once in 4 days. Gently draw off 110 μL of media so as not to disturb the adherent cells; add 110 μL of CTG; incubate with slow shaking for 20 minutes; and read luminescence on a plate reader.
# Androgen Receptor [4] = target: T2, Androgen Receptor (Homo sapiens, UniProt P10275+P40337, T878A); assay: Androgen Receptor ELISA assay (PathScan AR ELISA) in LNCaP cells: AR degradation, Dmax and DC50; assay type: cell-based; conditions: for DC50: concentration that caused 50% Androgen Receptor degradation; for Dmax: highest percentage of Androgen Receptor degradation observed
# T2 construct: Compounds have been evaluated in this assay in LNCaP and/or VCaP cells utilizing similar protocols; endogenous in cells; host or cells: LNCaP cells
# [5] = highest percentage of Androgen Receptor degradation observed, VCaP cells (Table 32)
# [6] = concentration that caused 50% Androgen Receptor degradation, VCaP cells (Table 32)
# T2 sequence (P10275 whole entry T878A): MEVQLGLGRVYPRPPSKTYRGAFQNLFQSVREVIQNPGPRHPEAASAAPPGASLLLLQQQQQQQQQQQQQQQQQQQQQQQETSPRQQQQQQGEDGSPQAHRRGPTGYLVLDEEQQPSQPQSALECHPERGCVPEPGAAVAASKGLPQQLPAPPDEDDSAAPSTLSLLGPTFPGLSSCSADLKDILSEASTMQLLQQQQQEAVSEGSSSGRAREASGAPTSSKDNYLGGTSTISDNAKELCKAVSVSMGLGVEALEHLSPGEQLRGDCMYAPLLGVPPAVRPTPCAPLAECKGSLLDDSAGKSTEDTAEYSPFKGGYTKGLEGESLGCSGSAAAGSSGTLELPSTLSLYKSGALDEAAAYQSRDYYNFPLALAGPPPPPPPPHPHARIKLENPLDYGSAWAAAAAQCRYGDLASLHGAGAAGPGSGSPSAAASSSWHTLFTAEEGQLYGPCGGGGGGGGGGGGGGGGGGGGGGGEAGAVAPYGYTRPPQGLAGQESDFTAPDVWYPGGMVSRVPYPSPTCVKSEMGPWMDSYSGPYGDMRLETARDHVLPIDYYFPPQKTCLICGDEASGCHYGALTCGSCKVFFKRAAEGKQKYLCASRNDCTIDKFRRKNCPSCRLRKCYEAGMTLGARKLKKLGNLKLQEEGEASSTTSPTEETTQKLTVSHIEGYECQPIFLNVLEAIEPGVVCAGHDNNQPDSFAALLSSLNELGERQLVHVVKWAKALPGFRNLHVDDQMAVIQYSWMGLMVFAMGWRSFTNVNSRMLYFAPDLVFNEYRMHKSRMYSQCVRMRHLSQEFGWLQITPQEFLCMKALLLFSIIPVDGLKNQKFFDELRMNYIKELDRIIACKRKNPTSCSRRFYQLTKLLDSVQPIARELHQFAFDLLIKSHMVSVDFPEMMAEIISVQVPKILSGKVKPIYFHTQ
# T2 sequence (P40337 whole entry): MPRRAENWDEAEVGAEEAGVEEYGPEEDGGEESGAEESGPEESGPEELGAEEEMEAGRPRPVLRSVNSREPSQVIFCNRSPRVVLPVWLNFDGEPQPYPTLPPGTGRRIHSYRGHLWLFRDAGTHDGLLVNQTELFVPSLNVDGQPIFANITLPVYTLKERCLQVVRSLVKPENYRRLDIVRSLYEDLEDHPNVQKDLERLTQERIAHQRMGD
# T2 sequence (Q15369 whole entry partner): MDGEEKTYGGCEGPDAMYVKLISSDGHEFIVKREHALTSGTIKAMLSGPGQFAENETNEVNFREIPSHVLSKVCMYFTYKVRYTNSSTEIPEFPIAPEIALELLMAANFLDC
# T2 sequence (Q15370 whole entry partner): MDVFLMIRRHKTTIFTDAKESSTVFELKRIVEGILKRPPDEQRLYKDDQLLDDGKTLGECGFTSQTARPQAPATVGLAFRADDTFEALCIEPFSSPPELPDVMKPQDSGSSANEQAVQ
smiles,measurement,setting,value
Cc1ncsc1-c1ccc([C@H](CN(C)C)NC(=O)[C@@H]2C[C@@H](O)CN2C(=O)[C@@H](NC(=O)COCCCCCOc2ccc(C(=O)N[C@H]3C(C)(C)[C@H](Oc4ccc(C#N)c(Cl)c4)C3(C)C)cc2)C(C)(C)C)cc1 [Example 470],DC50,"Androgen Receptor [1]; VCaP cells, Table 35",< 50 nM
same,Dmax,"Androgen Receptor [1]; VCaP cells, Table 35",> 71%
same,AUC,[2],469 ng·h/mL
same,Cmax,[2],346 ng/mL
"Cc1ncsc1-c1ccc([C@H](C)NC(=O)[C@@H]2C[C@@H](O)CN2C(=O)[C@@H](NC(=O)COCCCCCNc2ccc(C(=O)N[C@H]3C(C)(C)[C@H](Oc4ccc(C#N)c(Cl)c4)C3(C)C)cc2)C(C)(C)C)cc1 [Example 174, (2S,4R)-1-[(2S)-3,3-dimethyl-2-[2-({5-[(4-{[trans-3-(3-chloro-4-cyanophenoxy)-2,2,4,4-tetramethylcyclobutyl]carbamoyl}phenyl)amino]pentyl}oxy)acetamido]butanoyl]-4-hydroxy-N-[(1S)-1-[4-(4-methyl-1,3-thiazol-5-yl)phenyl]ethyl]pyrrolidine-2-carboxamide]",AUC(0-t),[3]; vehicle ESD-1,35100 ng·h/mL
same,Cmax,[3]; vehicle ESD-1,1900 ng/mL
same,Dmax,Androgen Receptor [1]; [5],> 71%
same,DC50,Androgen Receptor [1]; [6],< 50 nM
same,GI50,VCaP cells,≤ 50 nM
"Cc1ncsc1-c1ccc(CNC(=O)[C@@H]2C[C@@H](O)CN2C(=O)[C@@H](NC(=O)COCCOc2ccc(-c3ccc(C(=O)N[C@H]4C(C)(C)[C@H](Oc5ccc(C#N)c(Cl)c5)C4(C)C)cc3)cc2)C(C)(C)C)cc1 [Example 182, (2S,4R)-1-[(2S)-3,3-dimethyl-2-(2-{2-[4-(4-{[trans-3-(3-chloro-4-cyanophenoxy)-2,2,4,4-tetramethylcyclobutyl]carbamoyl}phenyl)phenoxy]ethoxy}acetamido)butanoyl]-4-hydroxy-N-{[4-(4-methyl-1,3-thiazol-5-yl)phenyl]methyl}pyrrolidine-2-carboxamide]",AUC(0-t),[3]; vehicle ELP-1,29200 ng·h/mL
same,Cmax,[3]; vehicle ELP-1,1530 ng/mL
same,Dmax,Androgen Receptor [1]; [5],> 71%
same,GI50,VCaP cells,≤ 50 nM
"CC(C)(C)[C@H](NC(=O)COCCCCCOc1ccc(C(=O)N[C@H]2C(C)(C)[C@H](Oc3ccc(C#N)c(Cl)c3)C2(C)C)cc1)C(=O)N1C[C@H](O)C[C@H]1C(=O)NCc1ccc(-c2cncs2)cc1 [Example 150, (2S,4R)-1-[(2S)-3,3-dimethyl-2-(2-{[5-(4-{[trans-3-(3-chloro-4-cyanophenoxy)-2,2,4,4-tetramethylcyclobutyl]carbamoyl}phen-oxy)pentyl]oxy}acetamido)butanoyl]-4-hydroxy-N-{[4-(1,3-thiazol-5-yl)phenyl]methyl}pyrrolidine-2-carboxamide]",AUC(0-t),[3]; vehicle ESD-1,40200 ng·h/mL
same,Cmax,[3]; vehicle ESD-1,2750 ng/mL
same,Dmax,Androgen Receptor [1]; [5],> 71%
same,DC50,Androgen Receptor [1]; [6],< 50 nM
same,GI50,VCaP cells,≤ 50 nM
"Cc1ncsc1-c1ccc(CNC(=O)[C@@H]2C[C@@H](O)CN2C(=O)[C@@H](NC(=O)COCCCOCCN2CCC(c3ccc(N4C(=S)N(c5ccc(C#N)c(C(F)(F)F)c5)C(=O)C4(C)C)cc3)CC2)C(C)(C)C)cc1 [Example 80, (2S,4R)-1-((S)-2-(2-(3-(2-(4-(4-(3-(4-cyano-3-(trifluoromethyl)phenyl)-5,5-dimethyl-4-oxo-2-thioxoimidazolidin-1-yl)phenyl)piperidin-1-yl)ethoxy)propoxy)acetamido)-3,3-dimethylbutanoyl)-4-hydroxy-N-(4-(4-methylthiazol-5-yl)benzyl)pyrrolidine-2-carboxamide]",AUC(0-t),[3]; vehicle ELP-1,2530 ng·h/mL
same,Cmax,[3]; vehicle ELP-1,180 ng/mL
same,Dmax,Androgen Receptor [1],26 to 50%
same,DC50,Androgen Receptor [4],> 501 nM
same,Dmax,Androgen Receptor [4],51 to 70%
"Cc1ncsc1-c1ccc(CNC(=O)[C@@H]2C[C@@H](O)CN2C(=O)[C@@H](NC(=O)COCCCCOc2ccc(-c3ccc(N4C(=S)N(c5ccc(C#N)c(C(F)(F)F)c5)C(=O)C4(C)C)cc3)cc2)C(C)(C)C)cc1 [Example 75, (2S,4R)-1-[(2S)-2-(2-{4-[4-(4-{3-[4-cyano-3-(trifluoromethyl)phenyl]-5,5-dimethyl-4-oxo-2-sulfanylideneimidazolidin-1-yl}phenyl)phenoxy]butoxy}acetamido)-3,3-dimethylbutanoyl]-4-hydroxy-N-{[4-(4-methyl-1,3-thiazol-5-yl)phenyl]methyl}pyrrolidine-2-carboxamide]",Dmax,Androgen Receptor [1],> 71%
same,DC50,"Androgen Receptor [1]; concentration that caused 50% Androgen Receptor degradation, VCaP cells",< 50 nM
same,DC50,Androgen Receptor [4],< 50 nM
same,Dmax,Androgen Receptor [4],> 71%
same,GI50,VCaP cells,51 to 250 nM
"Cc1ncsc1-c1ccc([C@H](C)NC(=O)[C@@H]2C[C@@H](O)CN2C(=O)[C@@H](NC(=O)COCCCCCOc2ccc(C(=O)N[C@H]3C(C)(C)[C@H](Oc4ccc(C#N)c(Cl)c4)C3(C)C)cc2)C(C)(C)C)cc1 [Example 157, (2S,4R)-1-[(2S)-3,3-dimethyl-2-(2-{[5-(4-{[trans-3-(3-chloro-4-cyanophenoxy)-2,2,4,4-tetramethylcyclobutyl]carbamoyl}phen-oxy)pentyl]oxy}acetamido)butanoyl]-4-hydroxy-N-[(1S)-1-[4-(4-methyl-1,3-thiazol-5-yl)phenyl]ethyl]pyrrolidine-2-carboxamide]",Dmax,Androgen Receptor [1]; [5],> 71%
same,GI50,VCaP cells,≤ 50 nM
"Cc1ncsc1-c1ccc(CNC(=O)[C@@H]2C[C@@H](O)CN2C(=O)[C@@H](NC(=O)COCc2ccc(Oc3ccc(C(=O)N[C@H]4C(C)(C)[C@H](Oc5ccc(C#N)c(Cl)c5)C4(C)C)cc3)cc2)C(C)(C)C)cc1 [Example 183, (2S,4R)-1-[(2S)-3,3-dimethyl-2-(2-{[4-(4-{[trans-3-(3-chloro-4-cyanophenoxy)-2,2,4,4-tetramethylcyclobutyl]carbamoyl}phenoxy)phenyl]methoxy}acetamido)butanoyl]-4-hydroxy-N-{[4-(4-methyl-1,3-thiazol-5-yl)phenyl]methyl}pyrrolidine-2-carboxamide]",Dmax,Androgen Receptor [1]; [5],> 71%
same,GI50,VCaP cells,≤ 50 nM
Cc1ncsc1-c1ccc([C@H](C)NC(=O)[C@@H]2C[C@@H](OC(=O)[C@@H](N)C(C)C)CN2C(=O)[C@@H](NC(=O)COCCCCCNc2ccc(C(=O)N[C@H]3C(C)(C)[C@H](Oc4ccc(C#N)c(Cl)c4)C3(C)C)cc2)C(C)(C)C)cc1 [Example 463],AUC,[2],49 ng·h/mL
same,Cmax,[2],12 ng/mL
